In PubChem BioAssay AID210 (DTP/NCI, 2004):
Toxic doses and inconclusive results are not listed. *1 amine or outer side, *2 acyl side, *3 side chain or, on linkers, in order; H or OH if unused. Where a SMILES comes first, the peptide text is derived from it. Bridges are numbered along the chain shown (N, C = ends). Roman numbers before positions name the chains, in order. [ ]: non-standard residue; d: D form. Actinocin(9to1) = Cc1c2oc3c(C)ccc(C(=O)[*:1])c3nc-2c(C(=O)[*:2])c(N)c1=O; aThr = C[C@H](O)[C@H](N)C(=O)O; NMeV = CN[C@H](C(=O)O)C(C)C; Sar = CNCC(=O)O

Test system: CD2F1 mice, ip Colon 26 adenocarcinoma, median survival T/C
Assay: NCI In Vivo Anticancer Drug Screen. Data for tumor model Colon 26 Adenocarcinoma (intraperitoneal) in CD2F1 (CDF1) mice
Settings: endpoint: median survival time, higher = longer survival
Protocol: The antitumor activity of compounds was measured in mice bearing transplantable tumors. Survival or tumor size were measured and the results are expressed as the measurement made in the treated group (T) divided by the measurement made in the vehicle treated control group (C). The tumor model used in this assay is Colon 26 Adenocarcinoma (intraperitoneal) in CD2F1 (CDF1) mice

[1] = dose: 12.5 mg/kg/injection, schedule: Q04DX003 (ip), vehicle: Klucel (hydroxypropylcellulose) (HPC)
[2] = dose: 25.0 mg/kg/injection, schedule: Q04DX003 (ip), vehicle: Klucel (hydroxypropylcellulose) (HPC)

C/C(=C\c1ccccc1)[N+](=O)[O-]
T/C (dose: 3.12 mg/kg/injection, schedule: Q04DX003 (ip), vehicle: Klucel (hydroxypropylcellulose) (HPC)): 91 % of control
T/C (dose: 6.25 mg/kg/injection, schedule: Q04DX003 (ip), vehicle: Klucel (hydroxypropylcellulose) (HPC)): 97 % of control
T/C [1]: 96 % of control
T/C [2]: 90 % of control

Cc1c2oc3c(C)ccc(C(=O)N[C@@H]4C(=O)N[C@H](C(C)C)C(=O)N5CCC[C@H]5C(=O)N(C)CC(=O)N(C)[C@@H](C(C)C)C(=O)O[C@H]4C)c3nc-2c(C(=O)N[C@@H]2C(=O)N[C@H](C(C)C)C(=O)N3CCC[C@H]3C(=O)N(C)CC(=O)N(C)[C@@H](C(C)C)C(=O)O[C@H]2C)c(N)c1=O (I: [aThr][dV]P[Sar][NMeV] / II: [aThr][dV]P[Sar][NMeV]; ester I:1-I:C, II:1-II:C; linker I:N-II:N via Actinocin(9to1))
T/C (dose: 0.13 mg/kg/injection, schedule: Q01DX001 (ip), vehicle: saline): 92 % of control
T/C (dose: 0.25 mg/kg/injection, schedule: Q01DX001 (ip), vehicle: saline): 99 % of control
T/C (dose: 0.5 mg/kg/injection, schedule: Q01DX001 (ip), vehicle: saline): 110 % of control
T/C (dose: 1.0 mg/kg/injection, schedule: Q01DX001 (ip), vehicle: saline): 107 % of control
T/C (dose: 28.0 micrograms/kg/injection, schedule: Q04DX003 (ip), vehicle: saline): 122 % of control
T/C (dose: 125.0 micrograms/kg/injection, schedule: Q01DX001 (ip), vehicle: saline + alcohol): 113 % of control
T/C (dose: 180.0 micrograms/kg/injection, schedule: Q04DX003 (ip), vehicle: saline + alcohol): 123 % of control
T/C (dose: 216.0 micrograms/kg/injection, schedule: Q04DX003 (ip), vehicle: saline): 156 % of control
T/C (dose: 250.0 micrograms/kg/injection, schedule: Q01DX001 (ip), vehicle: saline + alcohol): 109 % of control
T/C (dose: 500.0 micrograms/kg/injection, schedule: Q01DX001 (ip), vehicle: saline + alcohol): 113 % of control
T/C (dose: 500.0 micrograms/kg/injection, schedule: Q04DX003 (ip), vehicle: saline + alcohol): 153 % of control

CC(CN1CC(=O)NC(=O)C1)N1CC(=O)NC(=O)C1 (configuration not stated)
T/C [1]: 100 % of control
T/C [2]: 98 % of control
T/C (dose: 50.0 mg/kg/injection, schedule: Q04DX003 (ip), vehicle: Klucel (hydroxypropylcellulose) (HPC)): 102 % of control

CSC1SCC2C(=O)N(C)C(C(C)C)C(=O)OCC(NC(=O)c3cnc4ccccc4n3)C(=O)NC(C)C(=O)N(C)C1C(=O)N(C)C(C(C)C)C(=O)OCC(NC(=O)c1cnc3ccccc3n1)C(=O)NC(C)C(=O)N2C (configuration not stated)
T/C (dose: 25.0 micrograms/kg/injection, schedule: Q01DX004 (ip), vehicle: saline sonified): 87 % of control
T/C (dose: 100.0 micrograms/kg/injection, schedule: Q01DX004 (ip), vehicle: saline sonified): 86 % of control
T/C (dose: 100.0 micrograms/kg/injection, schedule: Q03DX002 (ip), vehicle: saline sonified): 94 % of control
T/C (dose: 150.0 micrograms/kg/injection, schedule: Q03DX002 (ip), vehicle: saline sonified): 90 % of control

COc1cc2c3cc1Oc1c(O)c(OC)cc4c1[C@H](Cc1ccc(cc1)Oc1cc(ccc1O)C[C@H]3N(C)CC2)N(C)CC4
T/C (dose: 5.0 mg/kg/injection, schedule: Q04DX003 (ip), vehicle: distilled water + Tween-80): 95 % of control
T/C (dose: 10.0 mg/kg/injection, schedule: Q04DX003 (ip), vehicle: distilled water + Tween-80): 103 % of control
T/C (dose: 20.0 mg/kg/injection, schedule: Q04DX003 (ip), vehicle: distilled water + Tween-80): 97 % of control
T/C (dose: 40.0 mg/kg/injection, schedule: Q04DX003 (ip), vehicle: distilled water + Tween-80): 115 % of control
T/C (dose: 40.0 mg/kg/injection, schedule: Q04DX003 (ip), vehicle: saline with Tween-80): 95 % of control
